Experimental data taken from the supplement of paper PMC4858399.

Legend:
Conditions in all cases: exposure time 48 h
[1] = tested on: Caenorhabditis elegans N2; test: AC50 for larval growth inhibition (Hill fit); higher = less potent
In short: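 Worms were synchronised C. elegans N2 L1 larvae, 50 per well of a 96-well plate, kept 48 h at 20°C in K-medium with killed OP50, 1% DMSO and 0.5–200 µM chemical. Size was taken as COPAS Biosort extinction, log-transformed and averaged per well, using only wells with at least 10 worms. AC50 was estimated by a constrained Hill fit with weighted genetic-algorithm regression; values outside the range are censored.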

[2] = tested on: Caenorhabditis elegans N2; test: lowest effective concentration for larval growth inhibition (size below effect threshold); higher = less potent
In short: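 C. elegans N2 L1 larvae (50 per 96-well) were grown 48 h at 20°C in K-medium with killed bacteria, 1% DMSO and 0.5, 1, 5, 10, 50, 100 or 200 µM chemical. The Biosort measured per-worm extinction as size, and these were log-transformed into well means. The lowest effective concentration is the first dose where the plate-adjusted mean size drops under the 5.665 threshold and stays under it at higher doses.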

[3] = tested on: Caenorhabditis elegans N2; test: mean nematode size ln(EXT) after 48 h, plate-adjusted (DMSO control set to 6) (ln(EXT), control-adjusted); higher = larger nematodes / less growth inhibition
In short: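 Synchronised C. elegans N2 L1 larvae (50 per well, 4–6 wells per treatment) were grown for 48 h at 20°C in K-medium with killed OP50, 1% DMSO and 0.5–200 µM chemical. The Biosort measured each worm's extinction, and debris was removed by a growth model. Values were natural-logged and averaged per well. Mean size was then plate-adjusted by subtracting the vehicle control mean and adding 6.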

Row | Structure (SMILES) | AC50 for larval growth inhibition [1] [µM] | lowest effective concentration [2] [µM] | mean nematode size ln(EXT) (ln) ([3]; 0.5 µM) | mean nematode size ln(EXT) (ln) ([3]; 1 µM) | mean nematode size ln(EXT) (ln) ([3]; 5 µM) | mean nematode size ln(EXT) (ln) ([3]; 10 µM) | mean nematode size ln(EXT) (ln) ([3]; 50 µM) | mean nematode size ln(EXT) (ln) ([3]; 100 µM) | mean nematode size ln(EXT) (ln) ([3]; 200 µM)
1 | CC(=O)NC1(c2cccc(F)c2)CCN(CC[C@@]2(c3ccc(Cl)c(Cl)c3)CN(c3ccccc3)C(=O)CO2)CC1 | > 200 | 100 | 5.89 | 5.91 | 5.85 | 5.88 | 5.82 | 5.52 | 5.02
2 | CC(C)(O)c1cnn2c(-c3ccc(F)c(-c4c(F)cccc4C#N)c3)cnc2n1 | > 200 | 100 | 5.88 | 5.79 | 5.71 | 5.8 | 5.82 | 5.66 | 5.05
3 | CC(C)c1nnc2ccc(-c3ocnc3-c3cc(F)ccc3F)cn12 | > 200 | 200 | 5.79 | 5.88 | 5.84 | 5.82 | 5.82 | 5.79 | 5.53
4 | CCC(C)N(C)C(=O)c1cc2ccccc2c(-c2ccccc2Cl)n1 (stereo unspecified) | 95.2 | 100 | 5.92 | 5.93 | 5.99 | 5.97 | 6.11 | 5.55 | 5.43
5 | CCCCCCC(CCCCCCCCCCC(=O)OCC(COC(C)=O)OC(C)=O)OC(C)=O (stereo unspecified) | > 200 | 50 | 5.48 | 5.6 | 5.59 | 5.69 | 5.64 | 5.58 | 5.53
6 | CCN(CC)C(=O)c1cc(S(=O)(=O)Cc2ccccc2)c(N2CCC(c3ccccc3)CC2)cc1N(CC)CCN(C)C | 72.6 | 10 | 5.74 | 5.7 | 5.67 | 5.57 | 4.82 | 4.3 | 3.47
7 | CCN(CC)CCNc1ccc(CNC=O)c2sc3ccc(OC)cc3c(=O)c12 | 107 | 10 | 5.89 | 5.87 | 5.75 | 5.65 | 5.25 | 4.73 | 3.81
8 | CCN(Cc1cccnc1)C(=O)c1cccc(Cl)c1[C@]1(C)C(=O)N(Cc2ccc(OC)cc2OC)c2ccc(Cl)cc21 | 3.78 | 10 | 5.85 | 5.78 | 5.8 | 5.4 | 5.54 | 5.37 | 5.39
9 | CCN1CCC2(CC1)COc1cc3c(cc12)N(C(=O)c1ccc(-c2ccc(-c4nnc(C)o4)cc2C)cc1)CC3 | 52.6 | 50 | 5.74 | 5.82 | 5.74 | 5.84 | 5.56 | 4.06 | 4.5
10 | CCOC(=O)COc1ccc2c(c1)CC(NCC(O)c1cccc(Cl)c1)CC2 (stereo unspecified) | > 200 | 200 | 5.79 | 5.81 | 5.87 | 5.81 | 5.76 | 5.75 | 5.5
11 | CCOC(=O)O[C@H](C)OC(=O)c1ccc2c(c1)cc(C(=O)NC1CCN(C(C)C)CC1)n2Cc1cc(-c2ccc(Cl)s2)on1 | 78.2 | 50 | 5.85 | 5.86 | 5.87 | 5.76 | 4.76 | 4.59 | 3.71
12 | CCOC(=O)[C@]1(c2ccccc2)Oc2ccccc2[C@@H]1N | 56.5 | 10 | 5.84 | 5.73 | 5.71 | 5.27 | 4.94 | 5.43 | 4.03
13 | CCOC(=O)c1ccc(C2CCC(NC[C@H](O)COc3ccc(O)c(NS(C)(=O)=O)c3)CC2)cc1 (stereo partly specified) | > 200 | 100 | 5.91 | 5.88 | 5.77 | 5.77 | 5.7 | 5.57 | 5.48
14 | CCOc1ccc2[nH]cc(C(=O)NCc3ccccc3)c(=O)c2n1 | > 200 | 200 | 5.85 | 5.84 | 5.84 | 5.96 | 5.91 | 5.86 | 5.63
15 | CCOc1cccc(-n2cc(C(=O)N3CCN(c4cc(C(=O)O)c5ccccc5c4)CC3)nc2-c2ccc(C)cc2)c1 | 57.9 | 50 | 5.89 | 5.86 | 5.82 | 5.84 | 4.84 | 4.42 | 3.94
16 | CCOc1cccc(C2(N3CCN(c4ccccc4)CC3)CCC(C)CC2)c1 (stereo unspecified) | > 200 | 200 | 5.73 | 5.87 | 5.72 | 5.79 | 5.69 | 5.67 | 5.56
17 | CC[C@@H]1C[C@H](N(Cc2cc(C(F)(F)F)cc(C(F)(F)F)c2)C(C)=O)c2cc(C(F)(F)F)ccc2N1C(=O)OC(C)C | > 200 | 200 | 5.74 | 6.01 | 5.87 | 5.9 | 5.83 | 5.79 | 5.52
18 | CC[C@H](NC(=O)c1cc(F)ccc1NS(=O)(=O)c1cccc2cccnc12)c1ccccc1 | 57.4 | 10 | 5.88 | 5.83 | 5.85 | 5.52 | 4.56 | 4.28 | 3.77
19 | CN(C)C(=O)C1(N2CCCCC2)CCN(CCC2(c3ccc(Cl)c(Cl)c3)CN(C(=O)c3ccccc3)CCO2)CC1 (stereo unspecified) | 119 | 50 | 5.78 | 5.82 | 5.83 | 5.77 | 5.23 | 4.76 | 4.06
20 | CN(C[C@@H](CC[N+]12CCC(C3CCCCC3)(CC1)CC2)c1ccc(Cl)c(Cl)c1)C(=O)c1cc(C(F)(F)F)cc(C(F)(F)F)c1 | 22.8 | 50 | 5.87 | 6.12 | 5.97 | 5.76 | 3.96 | 3.97 | 3.56
21 | CNCc1cc(F)ccc1Oc1ccc(Cl)c(Cl)c1 | 39.1 | 10 | 5.86 | 5.78 | 5.86 | 5.24 | 4.33 | 4.11 | 3.59
22 | CNS(=O)(=O)c1cc(C(=O)N2CCC(CCN3C4CCC3CC(n3c(C)nc5ccccc53)C4)(c3cccc(F)c3)CC2)c(Cl)cc1F (stereo unspecified) | > 200 | 50 | 5.68 | 5.79 | 5.77 | 5.78 | 5.62 | 5.38 | 5.41
23 | CN[C@H]1CC[C@@H](c2ccc(Cl)c(Cl)c2)c2ccc(S(N)(=O)=O)cc21 | 90.3 | 50 | 5.87 | 5.84 | 5.88 | 5.84 | 5.4 | 4.42 | 3.62

Row | Structure (SMILES) | AC50 for larval growth inhibition [1] [µM] | lowest effective concentration [2] [µM] | mean nematode size ln(EXT) (ln) ([3]; 0.5 µM) | mean nematode size ln(EXT) (ln) ([3]; 1 µM) | mean nematode size ln(EXT) (ln) ([3]; 5 µM) | mean nematode size ln(EXT) (ln) ([3]; 10 µM) | mean nematode size ln(EXT) (ln) ([3]; 50 µM) | mean nematode size ln(EXT) (ln) ([3]; 100 µM) | mean nematode size ln(EXT) (ln) ([3]; 200 µM)
24 | COCCOc1cc2cc(C(=O)NC3CCN(C(C)C)CC3)n(CC(=O)Nc3ccc(Cl)cn3)c2cn1 | 47.5 | 50 | 5.85 | 5.84 | 5.82 | 5.77 | 4.98 | 4.13 | 5.19
25 | COc1ccc(OC(F)(F)F)cc1CN[C@H]1CCCN[C@H]1c1ccccc1 | 185 | 50 | 6.04 | 5.82 | 5.68 | 5.67 | 5.39 | 4.71 | 4.55
26 | COc1ccc2cc(S(=O)(=O)N[C@H](CC(=O)N[C@H](Cc3ccc(CN4[C@H](C)CCC[C@@H]4C)cc3)C(=O)N(C)C(C)C)c3ccc4c(c3)OCO4)ccc2c1 | > 200 | 100 | 5.87 | 5.8 | 5.85 | 5.73 | 5.76 | 5.43 | 4.99
27 | CSc1ccc(Oc2ccc(S(N)(=O)=O)cc2CN(C)C)cc1C | > 200 | 200 | 5.74 | 5.87 | 5.86 | 5.84 | 5.83 | 5.69 | 5.17
28 | Cc1nc(-c2ccc3c(c2)CCN(CCC2CCC(NC(=O)/C=C/c4ccc(F)cc4)CC2)CC3)no1 (stereo unspecified) | > 200 | 100 | 5.87 | 5.83 | 5.82 | 5.86 | 5.74 | 5.6 | 5.59
29 | Cc1nccn1-c1ccc(Sc2cccc(C3(C(N)=O)CCOCC3)c2)cc1 | > 200 | 200 | 5.74 | 6.03 | 5.84 | 5.88 | 5.86 | 5.81 | 5.48
30 | Cc1oc(-c2ccccc2)nc1CCOc1cccc2c1ccn2CCC(=O)O | > 200 | 200 | 5.73 | 5.92 | 5.85 | 5.73 | 5.67 | 5.81 | 5.52
31 | Clc1cc(Cl)c2c(c1)N=C1CCCCCN1C2 | > 200 | 100 | 5.91 | 5.88 | 5.72 | 5.8 | 5.67 | 5.54 | 4.82
32 | Fc1ccccc1[C@@H](F)CO[C@H]1CC[C@H](Nc2[nH]cnc3nncc2-3)CC1 | > 200 | 100 | 5.89 | 5.84 | 5.82 | 5.68 | 5.67 | 5.25 | 5.4
33 | NC(=O)N(O)[C@@H]1C=C[C@H](Oc2cccc(Oc3ccc(F)cc3)c2)C1 | 72.9 | 100 | 5.9 | 6.14 | 6.17 | 6.17 | 5.89 | 5.05 | 4.86
34 | NC(=O)N1C(=O)C(C(=O)c2cc(Cl)cs2)c2cc(F)c(Cl)cc21 (stereo unspecified) | 1.41 | ≤ 0.5 | 5.49 | 4.96 | 4.54 | 4.37 | 4.04 | 4.02 | 
35 | NC(=O)c1nc(-c2cccc(-c3cc(F)ccc3OCC(F)(F)C(F)(F)F)c2)n[nH]1 | 50.6 | 50 | 5.73 | 5.81 | 5.71 | 5.78 | 5.53 | 4.97 | 5.09
36 | Nc1cc2c3c(c1)C(c1ccccc1)=N[C@@H](NC(=O)c1cccnc1)C(=O)N3CC2 | > 200 | 50 | 5.78 | 5.74 | 5.7 | 5.73 | 5.63 | 5.62 | 5.61
37 | O=C(NO)C1(NS(=O)(=O)c2ccc(Oc3ccc(F)cc3)cc2)CCOCC1 | > 200 | 200 | 5.72 | 6.03 | 5.84 | 5.9 | 5.89 | 5.71 | 5.12
38 | O=C(N[C@@H](c1ccccc1)[C@@H]1CCCCN1)c1cccc(C(F)(F)F)c1Cl | 148 | 10 | 5.86 | 5.78 | 5.75 | 5.66 | 5.2 | 4.58 | 4.47
39 | O=C(N[C@H](c1ccccc1)[C@@H]1CN2CCC1CC2)c1c(Cl)ccc(C(F)(F)F)c1Cl | 171 | 10 | 5.84 | 5.83 | 5.78 | 5.64 | 5.61 | 5.09 | 4.34
40 | O=C(N[C@H]1CN2CCC1CC2)c1cc2ccoc2cn1 | > 200 | 200 | 5.73 | 5.89 | 5.88 | 5.78 | 5.86 | 5.86 | 5.65
41 | O=C(O)C1(c2ccc3c(c2)OC[C@H](Cc2ccc(-c4ccccc4)cc2)[C@H]3O)CCCC1 | 52.8 | 50 | 5.91 | 5.83 | 5.77 | 5.9 | 5.16 | 4.25 | 4.18
42 | Oc1ccc2c(c1)OC[C@@H](N1CCC(O)(c3ccc(F)cc3)CC1)[C@H]2O | 51.4 | 50 | 5.9 | 6.11 | 6.21 | 6.18 | 5.48 | 4.39 | 4.5
43 | Cc1ccc(C(C)C)cc1 [p-Cymene] |  | > 200 | 5.73 | 5.99 | 6.14 | 6.05 | 6.08 | 6.06 | 5.92
44 | CC(C)(C)OOC(=O)c1ccccc1 [tert-Butyl perbenzoate] |  | > 200 | 6.05 | 6.11 | 6.1 | 6.03 | 6 | 6.09 | 5.87
45 | CC(C)(C)c1ccccc1 [tert-Butylbenzene] |  | > 200 | 5.94 | 6.02 | 6.07 | 6.05 | 6.22 | 6.12 | 5.79
